In patent US20090226500A1, “SUTURES AND ANTI-SCARRING AGENTS” (Angiotech Pharmaceuticals, Inc, priority 2006, published 2009):
Where two headings read alike, the source gives them in different places.

Experiments:
human fibroblasts = assay: Cell proliferation of fibroblasts; format: cell-based; conditions: Fibroblast, 72 hours, CYQUANT, read-out: IC50 cell proliferation of fibroblasts
In short: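 Human fibroblasts plated at 600 cells/well, attached overnight, then exposed to drug in triplicate for 72 h at 37°C. Cell content read with CYQUANT GR dye in lysis buffer after 3-5 min at room temperature.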

[1] = tested on: IL-8 production by THP-1 cells; assay: IL-8 production by macrophages; format: cell-based, human; conditions: Homo sapiens, read-out: IC50 IL-8 production
Description: The human macrophage cell line, THP-1 was plated in a 12 well plate such that each well contains 1×10^6 cells in 2 ml of media containing 10% FCS. Opsonized zymosan was prepared by resuspending 20 mg of zymosan A in 2 ml of ddH2O and homogenizing until a uniform suspension was obtained. Homogenized zymosan was pelleted at 250 g, resuspended in 4 ml of human serum for a final concentration of 5 mg/ml, and incubated in a 37° C. water bath for 20 minutes to enable opsonization. Geldanamycin was prepared in DMSO at a concentration of 10^−2 M and serially diluted 10-fold to give a range of stock concentrations (10^−8 M to 10^−2 M).
THP-1 cells were stimulated to produce IL-8 by the addition of 1 mg/ml opsonized zymosan. Geldanamycin was added to THP-1 cells by directly adding DMSO stock solutions, prepared earlier, at a 1/1000 dilution, to each well. Each drug concentration was tested in triplicate wells. Plates were incubated at 37° C. for 24 hours.
After a 24-hour stimulation, supernatants were collected to quantify IL-8 production. IL-8 concentrations in the supernatants were determined by ELISA using recombinant human IL-8 to obtain a standard curve. A 96-well MAXISORB plate was coated with 100 μL of anti-human IL-8 Capture Antibody diluted in Coating Buffer (0.1M sodium carbonate pH 9.5) overnight at 4° C. The dilution of Capture Antibody used was lot-specific and was determined empirically. Capture antibody was then aspirated and the plate washed 3 times with Wash Buffer (PBS, 0.05% TWEEN-20). Plates were blocked for 1 hour at room temperature with 200 μL/well of Assay Diluent (PBS, 10% FCS pH 7.0). After blocking, plates were washed 3 times with Wash Buffer. Standards and sample dilutions were prepared as follows: (a) sample supernatants were diluted 1/100 and 1/1000; (b) recombinant human IL-8 was prepared at 200 pg/ml and serially diluted to yield as standard curve of 3.1 pg/ml to 200 pg/ml Sample supernatants and standards were assayed in triplicate and were incubated at room temperature for 2 hours after addition to the plate coated with Capture Antibody The plates were washed 5 times and incubated with 100 μL of Working Detector (biotinylated anti-human IL-8 detection antibody+avidin-HRP) for 1 hour at room temperature. Following this incubation, the plates were washed 7 times and 100 μL of Substrate Solution (Tetramethylbenzidine, H2O2) was added to plates and incubated for 30 minutes at room temperature. Stop Solution (2 NH2SO4) was then added to the wells and a yellow color reaction was read at 450 nm with A correction at 570 nm. Mean absorbance was determined from triplicate data readings and the mean background was subtracted. IL-8 concentration values were obtained from the standard curve. […] The IC50 values for the following additional compounds were determined using this assay: IC50 (nM): 17-AAG, 56; mycophenolic acid, 549; resveratrol, 507; rapamycin, 4; 41; SP600125, 344; halofuginone, 641; D-mannose-6-phosphate, 220; epirubicin hydrochloride, 654; topotemay, 257; mithramycin, 33; daunorubicin, 421; celastrol, 490; chromomycin A3, 36

[2] = tested on: IL-1β production by THP-1 cells; assay: IL-1β production by macrophages; format: cell-based, human; conditions: Homo sapiens, read-out: IC50 IL-1β production
Smooth muscle cells = assay: Proliferation of smooth muscle cells; format: cell-based; conditions: 72 hours, CYQUANT; read-out: IC50 proliferation of smooth muscle cells
In short: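 Smooth muscle cells at 600 cells/well, exposed to paclitaxel (DMSO stocks 10^−8 to 10^−2 M) in triplicate for 72 h at 37 °C. Proliferation read with CyQUANT GR dye in lysis buffer.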

[3] = THP-1 cells stimulated with opsonized zymosan, 24 hours

| IC50 [1, 3] [nM] | IC50 [2, 3] [nM] | SMILES | IC50 (human fibroblasts) [nM] | IC50 ([1]; THP-1, 24 h) [nM] | IC50 ([2]; THP-1, 24 h) [nM] | IC50 (Smooth muscle cells) [nM] |
| --- | --- | --- | --- | --- | --- | --- |
| – | – | CC1=C(O)C(=O)C=C2C1=CC=C1[C@@]2(C)CC[C@@]2(C)[C@@H]3C[C@](C)(C(=O)O)CC[C@]3(C)CC[C@]12C [celastrol] | 100 to 600 | 490 | 23 | 493 |
| 549 | 2890 | COc1c(C)c2c(c(O)c1C/C=C(\C)CCC(=O)O)C(=O)OC2 [mycophenolic acid] | 100 to 600 | – | – | 579 |
